Reference: PubChem BioAssay (NCI)
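Dose response: 5 concentrations. Exposure: 48 h. Format: 96-well plates. Endpoint: linear interpolation; highest concentration if not reached. TGI: concentration producing complete growth inhibition.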

Key:
Test in all cases: NCI-60 cell line screen, 48 h
786-0 renal = system: 786-0 renal
A498 renal = system: A498 renal
A549 NSCLC = system: A549 NSCLC
ACHN renal = system: ACHN renal
CAKI-1 renal = system: CAKI-1 renal
CCRF-CEM leukemia = system: CCRF-CEM leukemia
COLO 205 colon = system: COLO 205 colon
DLD-1 colon = system: DLD-1 colon
DMS 114 small cell lung = system: DMS 114 small cell lung
EKVX NSCLC = system: EKVX NSCLC
HCC-2998 colon = system: HCC-2998 colon
HCT-116 colon = system: HCT-116 colon
HCT-15 colon = system: HCT-15 colon
HL-60(TB) leukemia = system: HL-60(TB) leukemia
HOP-18 NSCLC = system: HOP-18 NSCLC
HOP-62 NSCLC = system: HOP-62 NSCLC
HOP-92 NSCLC = system: HOP-92 NSCLC
HT29 colon = system: HT29 colon
IGROV1 ovarian = system: IGROV1 ovarian
K-562 leukemia = system: K-562 leukemia
KM12 colon = system: KM12 colon
KM20L2 colon = system: KM20L2 colon
LOX IMVI melanoma = system: LOX IMVI melanoma
LXFL 529 NSCLC = system: LXFL 529 NSCLC
M14 melanoma = system: M14 melanoma
M19-MEL melanoma = system: M19-MEL melanoma
MALME-3M melanoma = system: MALME-3M melanoma
MOLT-4 leukemia = system: MOLT-4 leukemia
NCI-H23 lung = system: NCI-H23 lung
NCI-H460 lung = system: NCI-H460 lung
NCI-H522 lung = system: NCI-H522 lung
OVCAR-4 ovarian = system: OVCAR-4 ovarian
OVCAR-5 ovarian = system: OVCAR-5 ovarian
OVCAR-8 ovarian = system: OVCAR-8 ovarian
RPMI-8226 leukemia = system: RPMI-8226 leukemia
RXF 393 renal = system: RXF 393 renal
RXF-631 renal = system: RXF-631 renal
SF-268 CNS = system: SF-268 CNS
SF-295 CNS = system: SF-295 CNS
SF-539 CNS = system: SF-539 CNS
SK-MEL-2 melanoma = system: SK-MEL-2 melanoma
SK-MEL-28 melanoma = system: SK-MEL-28 melanoma
SK-MEL-5 melanoma = system: SK-MEL-5 melanoma
SK-OV-3 ovarian = system: SK-OV-3 ovarian
SN12C renal = system: SN12C renal
SNB-19 CNS = system: SNB-19 CNS
SNB-75 CNS = system: SNB-75 CNS
SNB-78 CNS = system: SNB-78 CNS
SR leukemia = system: SR leukemia
SW-620 colon = system: SW-620 colon
TK-10 renal = system: TK-10 renal
U251 CNS = system: U251 CNS
UACC-257 melanoma = system: UACC-257 melanoma
UACC-62 melanoma = system: UACC-62 melanoma
UO-31 renal = system: UO-31 renal
XF 498 CNS = system: XF 498 CNS
DMS 273 small cell lung = system: DMS 273 small cell lung
NCI-H226 lung = system: NCI-H226 lung
OVCAR-3 ovarian = system: OVCAR-3 ovarian

Compound: C=CCONC(=O)c1ccc(Cl)cc1
- TGI (786-0 renal): > 100 µM
- TGI (A498 renal): > 100 µM
- TGI (A549 NSCLC): > 100 µM
- TGI (ACHN renal): > 100 µM
- TGI (CAKI-1 renal): > 100 µM
- TGI (CCRF-CEM leukemia): > 100 µM
- TGI (COLO 205 colon): > 100 µM
- TGI (DLD-1 colon): > 100 µM
- TGI (DMS 114 small cell lung): > 100 µM
- TGI (EKVX NSCLC): > 100 µM
- TGI (HCC-2998 colon): > 100 µM
- TGI (HCT-116 colon): > 100 µM
- TGI (HCT-15 colon): > 100 µM
- TGI (HL-60(TB) leukemia): > 100 µM
- TGI (HOP-18 NSCLC): > 100 µM
- TGI (HOP-62 NSCLC): > 100 µM
- TGI (HOP-92 NSCLC): > 100 µM
- TGI (HT29 colon): > 100 µM
- TGI (IGROV1 ovarian): > 100 µM
- TGI (K-562 leukemia): > 100 µM
- TGI (KM12 colon): > 100 µM
- TGI (KM20L2 colon): > 100 µM
- TGI (LOX IMVI melanoma): > 100 µM
- TGI (LXFL 529 NSCLC): > 100 µM
- TGI (M14 melanoma): > 100 µM
- TGI (M19-MEL melanoma): > 100 µM
- TGI (MALME-3M melanoma): > 100 µM
- TGI (MOLT-4 leukemia): > 100 µM
- TGI (NCI-H23 lung): > 100 µM
- TGI (NCI-H460 lung): > 100 µM
- TGI (NCI-H522 lung): > 100 µM
- TGI (OVCAR-4 ovarian): > 100 µM
- TGI (OVCAR-5 ovarian): > 100 µM
- TGI (OVCAR-8 ovarian): > 100 µM
- TGI (RPMI-8226 leukemia): > 100 µM
- TGI (RXF 393 renal): > 100 µM
- TGI (RXF-631 renal): > 100 µM
- TGI (SF-268 CNS): > 100 µM
- TGI (SF-295 CNS): > 100 µM
- TGI (SF-539 CNS): > 100 µM
- TGI (SK-MEL-2 melanoma): > 100 µM
- TGI (SK-MEL-28 melanoma): > 100 µM
- TGI (SK-MEL-5 melanoma): > 100 µM
- TGI (SK-OV-3 ovarian): > 100 µM
- TGI (SN12C renal): > 100 µM
- TGI (SNB-19 CNS): > 100 µM
- TGI (SNB-75 CNS): > 100 µM
- TGI (SNB-78 CNS): > 100 µM
- TGI (SR leukemia): > 100 µM
- TGI (SW-620 colon): > 100 µM
- TGI (TK-10 renal): > 100 µM
- TGI (U251 CNS): > 100 µM
- TGI (UACC-257 melanoma): > 100 µM
- TGI (UACC-62 melanoma): > 100 µM
- TGI (UO-31 renal): > 100 µM
- TGI (XF 498 CNS): > 100 µM

Compound: O=C1C/C(=C/c2ccc(/C=C3/CC(=O)N(c4cccc(Br)c4)C3=O)cc2)C(=O)N1c1cccc(Br)c1
- TGI (786-0 renal): > 100 µM
- TGI (A498 renal): > 100 µM
- TGI (A549 NSCLC): > 100 µM
- TGI (ACHN renal): > 100 µM
- TGI (CAKI-1 renal): > 100 µM
- TGI (CCRF-CEM leukemia): > 100 µM
- TGI (COLO 205 colon): > 100 µM
- TGI (DLD-1 colon): > 100 µM
- TGI (DMS 114 small cell lung): > 100 µM
- TGI (DMS 273 small cell lung): > 100 µM
- TGI (EKVX NSCLC): > 100 µM
- TGI (HCC-2998 colon): > 100 µM
- TGI (HCT-116 colon): > 100 µM
- TGI (HCT-15 colon): > 100 µM
- TGI (HL-60(TB) leukemia): > 100 µM
- TGI (HOP-18 NSCLC): > 100 µM
- TGI (HOP-62 NSCLC): > 100 µM
- TGI (HOP-92 NSCLC): > 100 µM
- TGI (HT29 colon): > 100 µM
- TGI (IGROV1 ovarian): > 100 µM
- TGI (K-562 leukemia): > 100 µM
- TGI (KM12 colon): > 100 µM
- TGI (KM20L2 colon): > 100 µM
- TGI (LOX IMVI melanoma): > 100 µM
- TGI (LXFL 529 NSCLC): > 100 µM
- TGI (M14 melanoma): > 100 µM
- TGI (M19-MEL melanoma): > 100 µM
- TGI (MALME-3M melanoma): > 100 µM
- TGI (MOLT-4 leukemia): 98.6 µM
- TGI (NCI-H226 lung): > 100 µM
- TGI (NCI-H23 lung): > 100 µM
- TGI (NCI-H460 lung): > 100 µM
- TGI (NCI-H522 lung): > 100 µM
- TGI (OVCAR-3 ovarian): > 100 µM
- TGI (OVCAR-4 ovarian): > 100 µM
- TGI (OVCAR-5 ovarian): > 100 µM
- TGI (OVCAR-8 ovarian): > 100 µM
- TGI (RPMI-8226 leukemia): > 100 µM
- TGI (RXF 393 renal): 93.4 µM
- TGI (SF-268 CNS): > 100 µM
- TGI (SF-295 CNS): > 100 µM
- TGI (SF-539 CNS): > 100 µM
- TGI (SK-MEL-2 melanoma): > 100 µM
- TGI (SK-MEL-28 melanoma): > 100 µM
- TGI (SK-MEL-5 melanoma): > 100 µM
- TGI (SK-OV-3 ovarian): > 100 µM
- TGI (SN12C renal): > 100 µM
- TGI (SNB-19 CNS): > 100 µM
- TGI (SNB-75 CNS): 53.1 µM
- TGI (SNB-78 CNS): > 100 µM
- TGI (SR leukemia): > 100 µM
- TGI (SW-620 colon): > 100 µM
- TGI (TK-10 renal): > 100 µM
- TGI (U251 CNS): > 100 µM
- TGI (UACC-257 melanoma): > 100 µM
- TGI (UACC-62 melanoma): > 100 µM
- TGI (UO-31 renal): > 100 µM
- TGI (XF 498 CNS): > 79 µM

Compound: CC1=C2CCCC2C/C(=N/Nc2ccc([N+](=O)[O-])cc2[N+](=O)[O-])CC1 (stereo not drawn)
- TGI (786-0 renal): > 100 µM
- TGI (A498 renal): > 100 µM
- TGI (A549 NSCLC): > 100 µM
- TGI (ACHN renal): > 100 µM
- TGI (CAKI-1 renal): > 100 µM
- TGI (COLO 205 colon): > 100 µM
- TGI (DMS 114 small cell lung): > 100 µM
- TGI (DMS 273 small cell lung): > 100 µM
- TGI (HCC-2998 colon): > 100 µM
- TGI (HCT-116 colon): > 100 µM
- TGI (HCT-15 colon): > 100 µM
- TGI (HL-60(TB) leukemia): 83.2 µM
- TGI (HOP-18 NSCLC): > 100 µM
- TGI (HOP-62 NSCLC): > 100 µM
- TGI (HOP-92 NSCLC): > 100 µM
- TGI (HT29 colon): > 100 µM
- TGI (IGROV1 ovarian): > 100 µM
- TGI (K-562 leukemia): > 100 µM
- TGI (KM12 colon): > 100 µM
- TGI (KM20L2 colon): > 100 µM
- TGI (LOX IMVI melanoma): > 100 µM
- TGI (LXFL 529 NSCLC): > 100 µM
- TGI (M14 melanoma): > 100 µM
- TGI (M19-MEL melanoma): > 100 µM
- TGI (MALME-3M melanoma): > 100 µM
- TGI (MOLT-4 leukemia): > 100 µM
- TGI (NCI-H226 lung): > 100 µM
- TGI (NCI-H23 lung): > 100 µM
- TGI (NCI-H460 lung): > 100 µM
- TGI (NCI-H522 lung): > 100 µM
- TGI (OVCAR-3 ovarian): > 100 µM
- TGI (OVCAR-4 ovarian): > 100 µM
- TGI (OVCAR-5 ovarian): > 100 µM
- TGI (OVCAR-8 ovarian): > 100 µM
- TGI (RPMI-8226 leukemia): > 100 µM
- TGI (RXF-631 renal): > 100 µM
- TGI (SF-268 CNS): > 100 µM
- TGI (SF-295 CNS): > 100 µM
- TGI (SF-539 CNS): > 100 µM
- TGI (SK-MEL-2 melanoma): > 100 µM
- TGI (SK-MEL-28 melanoma): > 100 µM
- TGI (SK-MEL-5 melanoma): > 100 µM
- TGI (SK-OV-3 ovarian): > 100 µM
- TGI (SN12C renal): > 100 µM
- TGI (SNB-19 CNS): > 100 µM
- TGI (SNB-75 CNS): > 100 µM
- TGI (SR leukemia): > 100 µM
- TGI (SW-620 colon): > 100 µM
- TGI (TK-10 renal): > 100 µM
- TGI (U251 CNS): > 100 µM
- TGI (UACC-257 melanoma): > 100 µM
- TGI (UACC-62 melanoma): > 100 µM
- TGI (UO-31 renal): > 100 µM
- TGI (XF 498 CNS): > 100 µM
